# In PMC3798130 (Angewandte Chemie (International Ed. in English), 2013):
# What was measured:
# JMJD2E (KDM4E) [1] = molecular target: T1, JMJD2E (KDM4E) (Homo sapiens, UniProt B2RXH2); assay: MALDI-TOF MS activity assay; format: biochemical; details: 1 hour, 25 °C, pH 7.5, mass gain
# T1 sequence (B2RXH2 1-506): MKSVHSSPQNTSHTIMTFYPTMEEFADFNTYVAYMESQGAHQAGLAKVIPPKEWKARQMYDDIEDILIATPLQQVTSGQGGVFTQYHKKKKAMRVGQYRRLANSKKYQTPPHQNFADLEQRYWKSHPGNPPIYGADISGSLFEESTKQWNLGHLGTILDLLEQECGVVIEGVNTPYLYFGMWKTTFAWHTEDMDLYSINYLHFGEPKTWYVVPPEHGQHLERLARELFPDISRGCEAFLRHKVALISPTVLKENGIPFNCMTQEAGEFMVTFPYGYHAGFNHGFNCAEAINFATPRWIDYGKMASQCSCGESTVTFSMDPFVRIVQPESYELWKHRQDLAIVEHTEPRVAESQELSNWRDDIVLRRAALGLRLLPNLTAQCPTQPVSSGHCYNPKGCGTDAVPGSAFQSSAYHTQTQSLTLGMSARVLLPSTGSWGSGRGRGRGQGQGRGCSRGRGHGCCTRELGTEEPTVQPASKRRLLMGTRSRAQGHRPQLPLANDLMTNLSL
# JMJD2E (KDM4E) [2] = molecular target: T1, JMJD2E (KDM4E); assay: Kinetic parameters for reactions of lysine analogue peptides with JMJD2E; format: biochemical; details: MALDI-TOF initial rates
Substance,mass of product greater than substrate peptide (hydroxylation) (JMJD2E (KDM4E) [1]),"KM, Vmax and kcat compared with other peptides (JMJD2E (KDM4E) [2])"
ART-Lys(Me3)-QTAR-Lys(iPr)-STGGKA [H3 Lysine-9(iPr)],16 Da,higher than values for the other three peptides
ART-Lys(Me3)-QTAR-Lys(Me/iPr)-STGGKA [H3 Lysine-9(Me/iPr)],16 Da,–
